Reference: patent publication US6703506B2, “Amino acid ester containing azole antifungals” (Janssen Pharmaceutica, N.V., priority 1997, dated 2004)
Converted amounts (≈) assume the structure as drawn.

Key:
[1] = Chemical stability (open glass jar, 40° C., 75% relative humidity); format: physicochemical; details: 50 mg, after one week
Method: After one week, the amount of test compound remaining was determined.

Candida glabrata = test: Determination of fungal susceptibility (MIC); format: cell-based; details: CYG medium, 2 days at 37° C., growth to 35% of control or less
Method: (§1) A panel of Candida isolates plus single isolates of the dermatophytes Microsporum canis, Trichophyton rubrum and T. mentagrophytes; Aspergillus fumigates, and Cryptococcus neoformans were used to evaluate the activity of the test compounds in vitro. Inocula were prepared as broth cultures (yeasts) or as suspensions of fungal material made from agar slope cultures (moulds). The test compounds were pipetted from DMSO stock solution into water to provide a series of 10-fold dilutions. The fungal inocula were suspended in the growth medium CYG (F. C. Odds, Journal of Clinical Microbiology, 29, (2735-2740, 1991) at approximately 50,000 colony-forming units (CFU) per ml and added to the aqueous test drugs. The cultures were set up in the 96 wells of plastic microdilution plates and they were incubated for 2 days at 37° C. (Candida spp.) or for 5 days at 30° C. (other fungi). Growth in the microcultures was measured by their optical density (OD) measured at a wavelength of 405 nm. The OD for cultures with test compounds was calculated as a percentage of the control, drug-free OD. Inhibition of growth to 35% of control or less was recorded as significant inhibition.
(§2) Minimal inhibitory concentration (MICs; in 10^−6 M) of intermediate 2 as the major metabolite and some of the compounds of formula (I) for Candida glabrata, Candida krusel, Candida parapsilosis, Candida albicans, Candida kefyr, Candida tropicalis, Microsporum canis, Trichophyton rubrum, Trichophyton mentagrophytes, Cryptococcus neoformans, Aspergillus fumigatus are listed in table 8.

Candida krusei = test: Determination of fungal susceptibility (MIC); format: cell-based; details: CYG medium, 2 days at 37° C., growth to 35% of control or less
Method: as §1, §2

Cryptococcus neoformans = test: Determination of fungal susceptibility (MIC); format: cell-based; details: CYG medium, 5 days at 30° C., growth to 35% of control or less
Method: as §1, §2

Microsporum canis = test: Determination of fungal susceptibility (MIC); format: cell-based; details: CYG medium, 5 days at 30° C., growth to 35% of control or less
Method: as §1, §2

Aspergillus fumigatus [2] = test: Determination of fungal susceptibility (MIC); format: cell-based; details: CYG medium, 5 days at 30° C., growth to 35% of control or less
Method: as §1, §2

[3] = test system: Trichophyton mentagrophytes; test: Determination of fungal susceptibility (MIC); format: cell-based; details: CYG medium, 5 days at 30° C., growth to 35% of control or less
Method: as §1, §2

Trichophyton rubrum = test: Determination of fungal susceptibility (MIC); format: cell-based; details: CYG medium, 5 days at 30° C., growth to 35% of control or less
Method: as §1, §2

Candida albicans [4] = test: Determination of fungal susceptibility (MIC); format: cell-based; details: CYG medium, 2 days at 37° C., growth to 35% of control or less
Method: as §1, §2

Candida kefyr = test: Determination of fungal susceptibility (MIC); format: cell-based; details: CYG medium, 2 days at 37° C., growth to 35% of control or less
Method: as §1, §2

Candida tropicalis = test: Determination of fungal susceptibility (MIC); format: cell-based; details: CYG medium, 2 days at 37° C., growth to 35% of control or less
Method: as §1, §2

Candida parapsilosis = test: Determination of fungal susceptibility (MIC); format: cell-based; details: CYG medium, 2 days at 37° C., growth to 35% of control or less
Method: as §1, §2

Aspergillus fumigatus [5] = test: Disseminated aspergillosis in guinea-pigs; format: in vivo; details: for CFU/g (liver): culture-positive livers post mortem; for % neg (total percentage culture-negative deep tissues): liver, spleen, kidney, lung and brain
Method: (§3) Specific pathogen-free (SPF) guinea-pigs (weighing 400-500 g) were used in all experiments. A catheter was placed into the left jugular vein of the animals that were treated by intravenous infusion, the vein was ligated, and the catheter was connected to a microprocessor-controlled infusion pump. The animals were infected with Aspergillus fumigatus (4,000 CFU/g body weight) or with Candida albicans (40,000 CFU/g body weight) either via the lateral vein of the penis or via the implanted catheter. Intravenous treatments (5 mg/kg/day) began 1 hour after infection. The test formulations were then administered on subsequent days as two, 1 hour infusions daily, separated by a period of 5 hours, for a total of 19 infusions or 9.5 days. Oral treatments with the test compounds (5 mg/kg/day) begun 1 hour after infection and were repeated twice daily up to the tenth day after infection (a total of 19 treatments. For each group of tested animals (number of tested animals per group given in column “N”), the mean survival time (MST) in days was recorded as well as the % survivors (% surv). Animals of each group which died during the experiment and those that survived the experiment and were killed, were investigated for counts of Aspergillus fumigatus and Candida albicans in deep tissue (liver, spleen, kidney, lung and brain) post mortem. The remaining CFU/g in the culture-positive livers was measured and expressed in table 9 (after intravenous treatment) and table 10 (after oral treatment) as mean log10 CFU/g. The columns “%neg” in tables 9 and 10 express the total percentage culture-negative deep tissues after the treatment.

Candida albicans [6] = test: Disseminated candidosis in guinea-pigs; format: in vivo; details: for CFU/g (liver): culture-positive livers post mortem; for % neg (total percentage culture-negative deep tissues): liver, spleen, kidney, lung and brain
Method: as §3

[7] = Solubility (excess compound shaken 1 day at room temperature, HPLC); format: physicochemical; details: thermodynamic from solid
Method: An excess of compound was added to the solvent (the type of solvent is specified in table 6) The mixture was shaken during 1 day at room temperature. The precipitate was filtered off. The concentration of the compound was measured via HPLC and is shown in the column “Solubility”.

[8] = i.v. treatment 5 mg/kg/day, 19 infusions, 9.5 days
[9] = oral treatment 5 mg/kg/day, twice daily, 19 treatments

SMILES | Stability (amount of test compound remaining) [1] | MIC (Candida glabrata) | MIC (Candida krusei) | MIC (Cryptococcus neoformans) | MIC (Microsporum canis) | MIC (Aspergillus fumigatus [2]) | MIC [3] | MIC (Trichophyton rubrum) | MIC (Candida albicans [4]) | MIC (Candida kefyr) | MIC (Candida tropicalis) | MIC (Candida parapsilosis) | CFU/g (liver) (Aspergillus fumigatus [5]; i.v. treatment 5 mg/kg/day) | CFU/g (liver) (Aspergillus fumigatus [5]; oral treatment 5 mg/kg/day) | % surv (% survivors) (Aspergillus fumigatus [5]; [8]) | MST (mean survival time) (Aspergillus fumigatus [5]; [8]) | % neg (total percentage culture-negative deep tissues) (Aspergillus fumigatus [5]; i.v. treatment 5 mg/kg/day) | % neg (total percentage culture-negative deep tissues) (Aspergillus fumigatus [5]; oral treatment 5 mg/kg/day) | % surv (% survivors) (Aspergillus fumigatus [5]; [9]) | MST (mean survival time) (Aspergillus fumigatus [5]; [9]) | also measured
C[C@H](OC(=O)[C@@H](N)Cc1ccccc1)[C@H](C)n1ncn(-c2ccc(N3CCN(c4ccc(OC[C@@H]5CO[C@@](Cn6cncn6)(c6ccc(F)cc6F)O5)cc4)CC3)cc2)c1=O (relative stereo) [Compound 23, [2S-[2α,4α[(R*,R*)]]]-2-[4-[4-[4-[4-[[2-(2,4-difluorophenyl)-2-(1H-1,2,4-triazol-1-ylmethyl)-1,3-dioxolan-4-yl]methoxy]-phenyl]-1-piperazinyl]-phenyl]-4,5-dihydro-5-oxo-1H-1,2,4-triazol-1-yl]-1-methylpropyl L-phenylalanine] | 99.7% | 10 10^−6 M | 1 10^−6 M | 1 10^−6 M | <1 10^−6 M | 1 10^−6 M | 1 10^−6 M | <0.1 10^−6 M | <0.1 10^−6 M | <0.1 10^−6 M | <0.1 10^−6 M | <0.1 10^−6 M | 3.6 mean log10 CFU/g | 3.0 mean log10 CFU/g | 83.3% | 9.2 days | 71% | 55% | 30% | 7.8 days | CFU/g (liver) (Candida albicans [6]; i.v. treatment 5 mg/kg/day): 0 mean log10 CFU/g; CFU/g (liver) (Candida albicans [6]; oral treatment 5 mg/kg/day): 0 mean log10 CFU/g; % surv (% survivors) (Candida albicans [6]; [8]): 83.3%; MST (mean survival time) (Candida albicans [6]; [8]): 9.8 days; % neg (total percentage culture-negative deep tissues) (Candida albicans [6]; i.v. treatment 5 mg/kg/day): 79%; % neg (total percentage culture-negative deep tissues) (Candida albicans [6]; oral treatment 5 mg/kg/day): 73%; % surv (% survivors) (Candida albicans [6]; [9]): 100%; MST (mean survival time) (Candida albicans [6]; [9]): 10 days; solubility at 1 day ([7]; aqueous buffer, solvent 0.0001M HCl, final pH in column pH of the same row (3.17-6.68)): 20 µg/mL (≈ 23.9 µM); solubility at 1 day ([7]; simulated gastric fluid, solvent 0.1M HCl, final pH in column pH of the same row (1.23-1.55)): > 5560 µg/mL
CC(C)C(N)C(=O)OC(C)C(C)n1ncn(-c2ccc(N3CCN(c4ccc(OCC5COC(Cn6cncn6)(c6ccc(F)cc6F)O5)cc4)CC3)cc2)c1=O (stereo not shown) [Compound 18] | 101.7% | 10 10^−6 M | 1 10^−6 M | 1 10^−6 M | 10 10^−6 M | 1 10^−6 M | 1 10^−6 M | 10 10^−6 M | <0.1 10^−6 M | <0.1 10^−6 M | <0.1 10^−6 M | <0.1 10^−6 M | 3.1 mean log10 CFU/g | 3.2 mean log10 CFU/g | 16.7% | 5.3 days | 29% | 20% | 0% | 5.2 days | CFU/g (liver) (Candida albicans [6]; i.v. treatment 5 mg/kg/day): 0 mean log10 CFU/g; CFU/g (liver) (Candida albicans [6]; oral treatment 5 mg/kg/day): 0 mean log10 CFU/g; % surv (% survivors) (Candida albicans [6]; [8]): 66.7%; MST (mean survival time) (Candida albicans [6]; [8]): 9.2 days; % neg (total percentage culture-negative deep tissues) (Candida albicans [6]; i.v. treatment 5 mg/kg/day): 92%; % neg (total percentage culture-negative deep tissues) (Candida albicans [6]; oral treatment 5 mg/kg/day): 68%; % surv (% survivors) (Candida albicans [6]; [9]): 100%; MST (mean survival time) (Candida albicans [6]; [9]): 10 days
